Like-named read-outs stand apart in the source and are kept apart here.
Test system: Human osteosarcoma U20S cells
Experiment: Assay to measure lysosome and autolysosome formation (acidic vesicle formation, LysoView/LysoTracker staining)
Type: cell-based
Settings: for activation at 0.8 µM: Homo sapiens; for activation at 0.8 µM / Activity (percentage increase in acidic vesicle formation), Table 2b More preferred compounds: U2OS cells, concentration of 0.8 μM; for increase in acidic vesicle formation: relative to DMSO-treated control (10 μM)
Description: Lysosomes play a fundamental role in the autophagic pathway by fusing with autophagosomes and creating ‘autolysosomes’ in order to digest their contents. Stimulation of lysosome and autolysosome formation by a compound is indicative of a stimulation of autophagy. The ability of compounds to stimulate lysosome and autolysosome formation, and thus autophagy, in live cells was assessed via fluorescent microscopy using various fluorescent stains for labelling and tracking acidic organelles (including lysosomes and autolysosomes) such as: LysoView™ 650 (70059 and 70059-T, Biotium), LysoViewTM633 (70058 and 70058-T, Biotium) and LysoTracker™ Deep Red (L12492, ThermoFisher Scientific). The cellular phenotype was quantitatively assessed for the induction of acidic vesicle formation and compared to a non-treated control, thus providing a measure of the ability of the compound under investigation to stimulate autophagy.
Representative procedure using LysoView™633 dye or LysoTracker™ Deep Red dye: Human osteosarcoma U20S cells (40,000 cells/well) were seeded in a 24 well glass bottom plate (Sensoplate, Greiner Bio-One) and were incubated overnight in a humidified atmosphere at 37° C. and 5% CO2. Cells were grown in DMEM (Gibco) supplemented with 10% Fetal Bovine Serum (FBS) and 100 units/ml penicillin and 100 μg/ml streptomycin (Invitrogen). After the attachment period, cells were treated with different compounds of interest (at various concentrations in DMSO) or DMSO (non-treated control) in cell culture medium and were incubated for 24 hours. Compound-containing medium was removed and cells were incubated with pre-warmed cell culture medium containing 1× LysoView™ 633 (70058 and 70058-T, Biotium) or 50 nM LysoTracker™ Deep Red (L12492, ThermoFisher Scientific) for 45 minutes at 37° C. Finally, cell nuclei were stained for 10 minutes using Hoechst 33342 (1 μg/mL) and then the medium was replaced with fresh medium. The 24 well plate was then fitted into a heated stage on the microscope and cells maintained at 37° C. Images were captured using appropriate filter set for Cy5 and DAPI detection with the EVOS M7000 Microscope (ThermoFisher Scientific). The cellular phenotype was visually assessed for the induction of acidic vesicle formation relative to the non-treated control; multiple images were acquired and analyzed using ImageJ or Cell Profiler.

[1] = read-out: Activity (percentage increase in acidic vesicle formation over the DMSO-treated control), Table 2
[2] = read-out: Activity (percentage increase in acidic vesicle formation), Table 2a Preferred compounds

| SMILES | activation at 0.8 µM [1] [%] | other results |
| --- | --- | --- |
| CCCN(C(=O)c1csc(-c2cnn(-c3ccccc3)c2)c1)[C@@H]1CCNC1 [Compound 36, 5-(1-phenyl-1H-pyrazol-4-yl)-N-propyl-N-[(3R)-pyrrolidin-3-yl]thiophene-3-carboxamide] | 10 to 30 |  |
| O=C(NC[C@@H]1CCNC1)c1cc(-c2cnn(-c3ccccc3)c2)cs1 [Compound 16, 4-(1-phenyl-1H-pyrazol-4-yl)-N-{[(3R)-pyrrolidin-3-yl]methyl}thiophene-2-carboxamide] | 10 to 30 |  |
| O=C(NCC1CCNCC1)c1ccc(-c2cnn(-c3ccccc3)c2)o1 [Compound 100, 5-(1-phenyl-1H-pyrazol-4-yl)-N-[(piperidin-4-yl)methyl]furan-2-carboxamide] | 30 to 50 |  |
| CCCN(C(=O)c1csc(-c2ccc(-c3ccccc3)s2)n1)C1CCNC1 (stereo not shown) [Compound 122, 2-(5-phenylthiophen-2-yl)-N-propyl-N-(pyrrolidin-3-yl)-1,3-thiazole-4-carboxamide] | > 100 | activation at 0.8 µM [2]: 50 to 100%; Activity (percentage increase in acidic vesicle formation), Table 2b More preferred compounds: ++++ (a percentage increase in acidic vesicle of greater than 100% over the DMSO-treated control) |
| CC(C)N(C(=O)c1csc(-c2cnn(-c3ccccc3Cl)c2)n1)C1CCNCC1 [Compound 66, 2-[1-(2-chlorophenyl)-1H-pyrazol-4-yl]-N-(piperidin-4-yl)-N-(propan-2-yl)-1,3-thiazole-4-carboxamide] | 10 to 30 |  |
| CCCN(C(=O)c1csc(-c2cnn(-c3ccccc3Cl)c2)n1)[C@H]1CCNC1 [Compound 89, 2-[1-(2-chlorophenyl)-1H-pyrazol-4-yl]-N-propyl-N-[(3S)-pyrrolidin-3-yl]-1,3-thiazole-4-carboxamide] | 10 to 30 |  |
| CC(C)N(C(=O)c1csc(-c2cnn(-c3ccccc3)c2)n1)[C@@H]1CCNC1 [Compound 312, 2-(1-phenyl-1H-pyrazol-4-yl)-N-(propan-2-yl)-N-[(3R)-pyrrolidin-3-yl]-1,3-thiazole-4-carboxamide] | 50 to 100 |  |
| CC(C)N(C(=O)c1cc(-c2cnn(-c3ccccc3)c2)c[nH]1)[C@@H]1CCNC1 [Compound 334, 4-(1-phenyl-1H-pyrazol-4-yl)-N-(propan-2-yl)-N-[(3R)-pyrrolidin-3-yl]-1H-pyrrole-2-carboxamide] | 30 to 50 | increase in acidic vesicle formation (U20S cells): only a slight increase |
| Cc1ccc(-n2cc(-c3nc(C(=O)N(C(C)C)C4CCNCC4)cs3)cn2)cc1 [Compound 57, 2-[1-(4-methylphenyl)-1H-pyrazol-4-yl]-N-(piperidin-4-yl)-N-(propan-2-yl)-1,3-thiazole-4-carboxamide] | 30 to 50 |  |
| CCCN(C(=O)c1ccc(-c2cnn(-c3ccccc3)c2)o1)C1CCNC1 (stereo not shown) [Compound 140, 5-(1-phenyl-1H-pyrazol-4-yl)-N-propyl-N-(pyrrolidin-3-yl)furan-2-carboxamide] | 10 to 30 |  |
| NCCOCCNC(=O)c1ccc(-c2cnn(-c3ccccc3)c2)o1 [Compound 101, N-[2-(2-aminoethoxy)ethyl]-5-(1-phenyl-1H-pyrazol-4-yl)furan-2-carboxamide] | 30 to 50 |  |
| CC(C)N(C(=O)c1csc(-c2cnn(-c3cccnn3)c2)n1)[C@@H]1CCNC1 [Compound 332, N-(propan-2-yl)-2-[1-(pyridazin-3-yl)-1H-pyrazol-4-yl]-N-[(3R)-pyrrolidin-3-yl]-1,3-thiazole-4-carboxamide] |  | acidic vesicle formation relative to a DMSO-treated control (U20S cells, concentration of 10 μM, 24 hours): only a slight increase; increase in acidic vesicle formation (U20S cells): only a slight increase |
| CCCN(C(=O)c1csc(-c2cnn(-c3cccc(OC(F)(F)F)c3)c2)n1)[C@@H]1CCNC1 [Compound 26, N-propyl-N-[(3R)-pyrrolidin-3-yl]-2-{1-[3-(trifluoromethoxy)phenyl]-1H-pyrazol-4-yl}-1,3-thiazole-4-carboxamide] | 30 to 50 |  |
| Cc1ccccc1-n1cc(-c2nc(C(=O)N(C(C)C)C3CCNCC3)cs2)cn1 [Compound 84, 2-[1-(2-methylphenyl)-1H-pyrazol-4-yl]-N-(piperidin-4-yl)-N-(propan-2-yl)-1,3-thiazole-4-carboxamide] | 10 to 30 |  |
| NC1CN(C(=O)c2csc(-c3cnn(-c4ccccc4)c3)n2)C1 [Compound 124, 1-[2-(1-phenyl-1H-pyrazol-4-yl)-1,3-thiazole-4-carbonyl]azetidin-3-amine] | 50 to 100 | activation at 0.8 µM [2]: 50 to 100% |
| N[C@H]1CCCN(C(=O)c2csc(-c3cnn(-c4ccccc4)c3)n2)C1 [Compound 142, (3S)-1-[2-(1-phenyl-1H-pyrazol-4-yl)-1,3-thiazole-4-carbonyl]piperidin-3-amine] | 10 to 30 |  |
| O=C(NC1CNC1)c1csc(-c2cnn(-c3ccccc3)c2)n1 [Compound 180, N-(azetidin-3-yl)-2-(1-phenyl-1H-pyrazol-4-yl)-1,3-thiazole-4-carboxamide] | 30 to 50 |  |
| CCCN(C(=O)c1csc(-c2cnn(-c3ccc(OC(F)(F)F)cc3)c2)n1)[C@H]1CCNC1 [Compound 45, N-propyl-N-[(3S)-pyrrolidin-3-yl]-2-{1-[4-(trifluoromethoxy)phenyl]-1H-pyrazol-4-yl}-1,3-thiazole-4-carboxamide] | 30 to 50 |  |
| CCCN(C(=O)c1csc(-c2cnn(-c3ccccc3)c2)c1)C1CCNC1 (stereo not shown) [Compound 130, 5-(1-phenyl-1H-pyrazol-4-yl)-N-propyl-N-(pyrrolidin-3-yl)thiophene-3-carboxamide] | 10 to 30 |  |
| CCCN(C(=O)c1csc(-c2cnn(-c3ccc(F)cc3)c2)n1)[C@H]1CCNC1 [Compound 58, 2-[1-(4-fluorophenyl)-1H-pyrazol-4-yl]-N-propyl-N-[(3S)-pyrrolidin-3-yl]-1,3-thiazole-4-carboxamide] | 10 to 30 |  |
| CCCN(C(=O)c1ccc(-c2cnn(-c3ccccc3)c2)[nH]1)C1CCNC1 (stereo not shown) [Compound 120, 5-(1-phenyl-1H-pyrazol-4-yl)-N-propyl-N-(pyrrolidin-3-yl)-1H-pyrrole-2-carboxamide] | 50 to 100 | activation at 0.8 µM [2]: 50 to 100% |
| CCCN(C(=O)c1csc(-c2cnn(-c3cccc(F)c3)c2)n1)[C@H]1CCNC1 [Compound 52, 2-[1-(3-fluorophenyl)-1H-pyrazol-4-yl]-N-propyl-N-[(3S)-pyrrolidin-3-yl]-1,3-thiazole-4-carboxamide] | 10 to 30 |  |
| O=C(NCC1CCNCC1)c1cc(-c2cnn(-c3ccccc3)c2)cs1 [Compound 111, 4-(1-phenyl-1H-pyrazol-4-yl)-N-[(piperidin-4-yl)methyl]thiophene-2-carboxamide] | 30 to 50 |  |
| CCCN(C(=O)c1csc(-c2cnn(-c3cccc(C)c3)c2)n1)[C@H]1CCNC1 [Compound 28, 2-[1-(3-methylphenyl)-1H-pyrazol-4-yl]-N-propyl-N-[(3S)-pyrrolidin-3-yl]-1,3-thiazole-4-carboxamide] | 10 to 30 |  |
| CCCN(C(=O)c1cc(-c2cnn(-c3ccccc3)c2)c[nH]1)C1CCNC1 (stereo not shown) [Compound 123, 4-(1-phenyl-1H-pyrazol-4-yl)-N-propyl-N-(pyrrolidin-3-yl)-1H-pyrrole-2-carboxamide] | > 100 | activation at 0.8 µM [2]: 50 to 100%; Activity (percentage increase in acidic vesicle formation), Table 2b More preferred compounds: ++++ (a percentage increase in acidic vesicle of greater than 100% over the DMSO-treated control) |
| O=C(c1csc(-c2cnn(-c3ccccc3)c2)n1)N1C[C@H]2C[C@@H]1CN2 [Compound 326, (1R,4R)-2-[2-(1-phenyl-1H-pyrazol-4-yl)-1,3-thiazole-4-carbonyl]-2,5-diazabicyclo[2.2.1]heptane] | 50 to 100 |  |
| NC1CCCN(C(=O)c2csc(-c3cnn(-c4ccccc4)c3)n2)C1 (stereo not shown) [Compound 167, 1-[2-(1-phenyl-1H-pyrazol-4-yl)-1,3-thiazole-4-carbonyl]piperidin-3-amine] | 10 to 30 |  |
| CCCN(C(=O)c1csc(-c2ccc(-c3ccccc3)s2)n1)[C@H]1CCNC1 [Compound 69, 2-(5-phenylthiophen-2-yl)-N-propyl-N-[(3S)-pyrrolidin-3-yl]-1,3-thiazole-4-carboxamide] | 30 to 50 |  |
| NC[C@H]1CCCN1C(=O)c1csc(-c2cnn(-c3ccc(C(F)(F)F)cc3)c2)n1 [Compound 76, 1-[(2R)-1-(2-{1-[4-(trifluoromethyl)phenyl]-1H-pyrazol-4-yl}-1,3-thiazole-4-carbonyl)pyrrolidin-2-yl]methanamine] | 10 to 30 |  |

Source: patent US20250049776A1, “AUTOPHAGY INDUCING COMPOUNDS AND USES THEREOF, IN PARTICULAR FOR A SYSTEMIC TREATMENT OF DISEASES AND CONDITIONS” (Samsara Therapeutics Inc., priority 2021, published 2025)
